In ChEMBL document CHEMBL1201862, “PubChem BioAssay data set” (2004):
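Five concentrations, 48 hours, 96-well plates. Here, GI50 denotes the concentration required for 50% inhibition of growth.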 The source made the active and inactive calls. No stated cut-off is given here; in the data, active = GI50 up to about 1.1 µM and inactive = higher. Where a SMILES comes first, the peptide text is derived from it. [ ]: non-standard residue; d: D form. The star is where a group is joined. ξ: configuration not given here. X4 = COc1ccc(C(N*)c2ccc(OC)cc2)cc1; NMeF = CN[C@@H](Cc1ccccc1)C(=O)O; NMeD = CN[C@@H](CC(=O)O)C(=O)O; NMeV = CN[C@H](C(=O)O)C(C)C; ξNMeV = CNC(C(=O)O)C(C)C; Boc = CC(C)(C)OC(=O)*; ξNMeA = CNC(C)C(=O)O; ξV = CC(C)C(N)C(=O)O

Columns and labels:
Assay in all cases: inhibition of tumour cell growth, NCI panel, 48 h
BT-549 = system: BT-549
DLD-1 = system: DLD-1
DMS-273 = system: DMS-273
KM-20L2 = system: KM-20L2
LXFL 529 = system: LXFL 529
M19-MEL = system: M19-MEL
RXF 631 = system: RXF 631
SNB-78 = system: SNB-78
HOP-18 = system: HOP-18

For `COC(=O)C(=O)C(C(=O)C(=O)Nc1ccc(C)cc1)c1nc2ccc(C(=O)c3ccccc3)cc2nc1O` (configuration not stated), the GI50 (BT-549) was > 100 µM (inactive).

For `COC(=O)c1ccccc1CC1Cc2cccc(C)c2C1=O` (configuration not stated), the GI50 (BT-549) was 30 µM (inactive).

With `c1ccc(CNc2ccc3[nH]c4cnccc4c3c2)cc1` the GI50 (DLD-1) was 16.6 µM (inactive), the GI50 (DMS-273) was 19.8 µM (inactive) and the GI50 (KM-20L2) was 16.2 µM (inactive). The GI50 (LXFL 529) was 16.6 µM (inactive), the GI50 (M19-MEL) was 18.7 µM (inactive) and the GI50 (RXF 631) was 20.6 µM (inactive). The GI50 (SNB-78) was 20.9 µM (inactive).

For `CCOC(=O)NNC(=O)NCc1ccccc1CNC(=O)NNC(=O)OCC`, the GI50 (BT-549) was > 100 µM (inactive).

In the case of `C[N+](C)(C)CC(=O)N/N=C(/Cc1nc2c3c(ccc2nc1O)C(=O)c1ccccc1C3=O)C(=O)Nc1ccc(Cl)c(Cl)c1`, the GI50 (DLD-1) was 17.9 µM (inactive), the GI50 (KM-20L2) was > 100 µM (inactive) and the GI50 (M19-MEL) was 38.2 µM (inactive). The GI50 (RXF 631) was 76.6 µM (inactive).

With `COc1ccc(C23OCC(Cc4cc(OC)c(OC)cc42)C3CO)cc1OC` (configuration not stated) the GI50 (BT-549) was > 100 µM (inactive).

In the case of `Cn1c(=O)oc2cc(C3CCC(=O)N3Cc3ccc(Cl)cc3)ccc21` (configuration not stated), the GI50 (DLD-1) was 92 µM (inactive), the GI50 (DMS-273) was > 100 µM (inactive) and the GI50 (HOP-18) was > 100 µM (inactive). The GI50 (KM-20L2) was > 100 µM (inactive), the GI50 (LXFL 529) was > 100 µM (inactive) and the GI50 (M19-MEL) was > 100 µM (inactive). For the same compound, the GI50 (SNB-78) was > 100 µM (inactive).

For `CC(C)/C(Cl)=N/OC(=O)Nc1ccc(OC(F)(F)F)cc1`, the GI50 (BT-549) was 16.3 µM (inactive).

With `COC(=O)c1c(CC(=O)OC(C)C)cc2n(c1=O)Cc1c-2nc2ccccc2c1OC` the GI50 (DLD-1) was > 100 µM (inactive), the GI50 (DMS-273) was > 100 µM (inactive) and the GI50 (HOP-18) was > 100 µM (inactive). The GI50 (KM-20L2) was > 100 µM (inactive), the GI50 (LXFL 529) was > 100 µM (inactive) and the GI50 (M19-MEL) was > 100 µM (inactive).

`CCCC1NC(=O)C(CC(C)C)NC(=O)c2cccc(n2)C(=O)NC(CC(C)C)C(=O)NC(CCC)C(=O)NC(C(=O)OC)CCCCNC1=O` (configuration not stated) was tested, and the GI50 (BT-549) was 26.4 µM (inactive).

`N/C(=N/O)c1cn(C2OC(CO)C(O)C2O)c2ncnc(NO)c12` (configuration not stated) was tested, and the GI50 (BT-549) was 0.426 µM (active).

`COc1ccc(C(NC(=O)C[C@@H](C(=O)N(C)C(C)C(=O)O)N(C)C(=O)[C@@H]2CCCN2C(=O)[C@H](C(C)C)N(C)C(=O)C(C(C)C)N(C)C(=O)[C@H](Cc2ccccc2)N(C)C(=O)C(NC(=O)OC(C)(C)C)C(C)C)c2ccc(OC)cc2)cc1` (some centres not stated) (Boc-[ξV][NMeF][ξNMeV][NMeV]P[NMeD](X4)[ξNMeA]-OH) was tested, and the GI50 (BT-549) was 6.73 µM (inactive), the GI50 (DLD-1) was 18 µM (inactive) and the GI50 (DMS-273) was 17.2 µM (inactive). For the same compound, the GI50 (KM-20L2) was 19.9 µM (inactive), the GI50 (LXFL 529) was 14.7 µM (inactive) and the GI50 (M19-MEL) was 16.9 µM (inactive). For the same compound, the GI50 (SNB-78) was 15.8 µM (inactive).

For `Cc1cccc(NC(=O)Cc2nc3ccccc3s2)c1C`, the GI50 (DLD-1) was > 100 µM (inactive), the GI50 (DMS-273) was > 100 µM (inactive) and the GI50 (KM-20L2) was > 100 µM (inactive). For the same compound, the GI50 (LXFL 529) was > 100 µM (inactive), the GI50 (M19-MEL) was > 100 µM (inactive) and the GI50 (RXF 631) was > 100 µM (inactive).

For `C(=N\c1ccc(-c2nc3ccccc3[nH]2)cc1)/c1ccc[nH]1`, the GI50 (BT-549) was > 100 µM (inactive).

`CCCCCCCCCCCC1CC(=O)NCCCN(C)CCCCN(C)CCCN1C` (configuration not stated) [BUDMUNCHIAMINE A] was tested, and the GI50 (DLD-1) was 1.6 µM (inactive), the GI50 (DMS-273) was 1.24 µM (inactive) and the GI50 (HOP-18) was 1.77 µM (inactive). The GI50 (KM-20L2) was 1.65 µM (inactive), the GI50 (LXFL 529) was 1.72 µM (inactive) and the GI50 (M19-MEL) was 1.76 µM (inactive). The GI50 (SNB-78) was 1.79 µM (inactive).

`Cc1ccc2occ/c(=N\Nc3ccccc3)c2c1` was tested, and the GI50 (BT-549) was > 100 µM (inactive).

For `Cc1cc(Cl)ccc1NC(=O)CCCC(=O)C1CCCC1=O` (configuration not stated), the GI50 (DLD-1) was > 100 µM (inactive), the GI50 (DMS-273) was > 100 µM (inactive) and the GI50 (HOP-18) was > 100 µM (inactive). The GI50 (KM-20L2) was > 100 µM (inactive), the GI50 (LXFL 529) was > 100 µM (inactive) and the GI50 (M19-MEL) was > 100 µM (inactive). For the same compound, the GI50 (SNB-78) was > 100 µM (inactive).

For `COc1ccc(C2[C@H]3C(=O)N(c4ccc(Cc5ccc(N6C(=O)[C@@H]7ON(c8ccccc8)C(c8ccc(OC)cc8)[C@@H]7C6=O)cc5)cc4)C(=O)[C@H]3ON2c2ccccc2)cc1` (some centres not stated), the GI50 (DLD-1) was > 100 µM (inactive), the GI50 (DMS-273) was > 100 µM (inactive) and the GI50 (HOP-18) was > 100 µM (inactive). For the same compound, the GI50 (KM-20L2) was > 100 µM (inactive), the GI50 (LXFL 529) was > 100 µM (inactive) and the GI50 (M19-MEL) was > 100 µM (inactive). The GI50 (SNB-78) was > 100 µM (inactive).

In the case of `CCOC(=O)NC(=O)c1cn(CCN2CCN(c3ncnc4[nH]cnc34)CC2)c(=O)[nH]c1=O`, the GI50 (DLD-1) was > 100 µM (inactive), the GI50 (HOP-18) was > 100 µM (inactive) and the GI50 (KM-20L2) was > 100 µM (inactive). The GI50 (LXFL 529) was > 100 µM (inactive), the GI50 (M19-MEL) was > 100 µM (inactive) and the GI50 (RXF 631) was > 100 µM (inactive).

With `C/C(=N\NC(=N)N)C(CN1CCCCC1)C(c1ccccc1)c1c(O)c2ccccc2oc1=O` (configuration not stated) the GI50 (DLD-1) was > 100 µM (inactive), the GI50 (KM-20L2) was > 100 µM (inactive) and the GI50 (LXFL 529) was > 100 µM (inactive). For the same compound, the GI50 (M19-MEL) was > 100 µM (inactive) and the GI50 (RXF 631) was > 100 µM (inactive).

`O=C1Oc2cc(O)cc(/C=C/c3ccc(O)cc3)c2[C@@]12c1c(O)cc(O)cc1OC2c1cccc(O)c1` (some centres not stated) was tested, and the GI50 (BT-549) was 49.8 µM (inactive).

`O=C1NC(=O)C(c2c[nH]c3cc(Br)ccc23)=C1c1cn(C(c2ccccc2)(c2ccccc2)c2ccccc2)cn1` was tested, and the GI50 (BT-549) was 16 µM (inactive).

In the case of `O=Nn1c2ccccc2c2ccccc21`, the GI50 (BT-549) was 73.1 µM (inactive).

With `CC(C)=CCc1cc2c(cc1O)OC[C@H]1c3cc4c(cc3O[C@@H]21)OCO4` the GI50 (BT-549) was 23.4 µM (inactive).
